Laboratory results taken from patent US20250099596A1, “TETRAHYDRONAPHTHALENE COMPOUND, AND PREPARATION METHOD THEREFOR AND USE THEREOF IN MEDICINE” (Jiangsu Hengrui Pharmaceuticals Co., Ltd., priority 2021, published 2025).
Read-outs that look alike come from different tables or passages of the source. Values belong to the compound of their own block, whether it stands above or below them.

Columns and labels:
[1] = Pharmacokinetic evaluation, beagle test; format: in vivo; details: beagles; for AUC(0-t): read-out: Area under curve AUC0-t; for half-life: read-out: Half-life T1/2 (converted); for Cmax: read-out: Plasma concentration Cmax
Method: With beagles as test animals, the plasma concentrations of the compound of Example 26-1 and Comparative Example 1 were determined by LC/MS/MS at different time points after intragastric (i.g.)/intravenous (i.v.) administration to beagles. The pharmacokinetic behavior of the compound of the present disclosure in beagles was studied and its pharmacokinetic profile was evaluated.
The compound of Example 26-1 and Comparative Example 1 (see patent WO2018102725A1, Example 411), whose structure is shown below:
Sixteen beagles, of which half were male and half female, were evenly divided into 4 groups. The beagles were provided by Shanghai Medicilon Inc. The 4 groups were fasted overnight and then dosed intragastrically and intravenously.
Certain amounts of the compound of Example 26-1 and the compound of Comparative Example 1 were weighed out and mixed with 5% (v/v) DMSO+30% (v/v) PG+30% (v/v) PEG400+35% (v/v) normal saline to make 0.4 mg/mL clear solutions (for the intragastric administration groups) and 0.25 mg/mL clear solutions (for the intravenous administration groups).
The intragastric administration groups: the dose was 2.0 mg/kg, and the volume was 5.0 mL/kg.
The intravenous administration groups: the dose was 0.5 mg/kg, and the volume was 2.0 mL/kg.
The intragastric administration group: Blood (1.0 mL) was collected from the jugular vein or the forelimb vein into EDTA-K2 anticoagulation tubes before administration and 0.25 h, 0.5 h, 1.0 h, 2.0 h, 4.0 h, 6.0 h, 8.0 h, 12.0 h and 24.0 h after administration and centrifuged at 10,000 rpm for 5 min (4° C.). The plasma was separated within 1 h and stored at −80° C. before analysis. The process from blood collection to centrifugation was performed in an ice bath. Three hours after administration, feeding was resumed.
The intravenous administration groups: Blood was collected before administration and 5 min, 0.25 h, 0.5 h, 1.0 h, 2.0 h, 4.0 h, 8.0 h, 12.0 h and 24 h after administration and processed as in the intragastric administration groups.
The plasma concentrations of the test compounds were determined after administration of different concentrations of the test compounds to beagles: plasma samples (50 μL) were collected from beagles at various time points after administration, and proteins were precipitated with 500 μL of methanol (containing 100 ng/mL internal standard Verapamil) for each of the samples; the mixtures were vortexed for 1 min and centrifuged at 18,000 g for 7 min. 500 μL of supernatant was transferred to a 96-well plate. 1 μL of supernatant was collected for LC/MS/MS analysis.

MCF7 cells = assay: Inhibitory effects on MCF7 cell proliferation (CellTiter-Glo); format: cell-based; details: Homo sapiens, 144 h, 6 days incubation, read-out: IC50 (nM), inhibition of MCF7 cell proliferation
Outline: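 MCF7 cells seeded at 3,000 cells/well in MEM with 2% FBS, then treated next day with 9 final concentrations (4-fold dilutions from 1000 nM) for 6 days at 37° C; blank control 0.5% DMSO. Viability read by CellTiter-Glo luminescence; IC50 fitted from concentration–signal data.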

MCF7/ERα Y537S cells = assay: Inhibitory activity on proliferation of ERα mutant-expressing MCF7 cells; format: cell-based; details: Homo sapiens, 144 h, 6 days incubation, CellTiter-Glo, read-out: IC50 (nM), inhibition of proliferation of ERα mutant-expressing MCF7 cells
Outline: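 MCF7 cells stably expressing ERα Y537S (lentiviral) were seeded in 2% FBS medium and exposed for 6 days at 37 °C to 9 concentrations (4-fold dilution from 1000 nM, 0.5% DMSO control). Viability read by CellTiter-Glo luminescence; IC50 calculated from concentration–signal data.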

[2] = both sexes, beagle, dog, plasma, iv, i.v., 0.5 mg/kg
[3] = both sexes, beagle, dog, plasma, po, i.g., 2.0 mg/kg

Clearance CL/F ([1]; i.v., 0.5 mg/kg): 2.8 mL/min/kg
AUC(0-t) [1, 2]: 2680 ng·h/mL
half-life [1, 2]: 8.1 h
Cmax [1, 2]: 600 ng/mL
Vd/F ([1]; both sexes, beagle, dog, plasma, po, i.g., 2.0 mg/kg, read-out: Apparent distribution volume Vz/F): 5.5 L/kg
AUC(0-t) [1, 3]: 4050 ng·h/mL
CL/F ([1]; both sexes, beagle, dog, plasma, po, i.g., 2.0 mg/kg, read-out: Clearance CL/F): 7.3 mL/min/kg
half-life [1, 3]: 9 h
Cmax [1, 3]: 324 ng/mL
Structure (SMILES): O=C1CCC(N2Cc3cc(N4CCN(CC5CCN(c6ccc([C@@H]7c8ccc(O)cc8CC[C@@H]7c7ccccc7)cc6)CC5)CC4)ccc3C2=O)C(=O)N1 (stereo partly drawn) [Comparative Example 1, reference compound]

IC50 (MCF7 cells): 20 nM
IC50 (MCF7/ERα Y537S cells): 72.1 nM
Structure (SMILES): O=C1CCC(N2Cc3cc(N4CCN(CC5CCN(c6ccc([C@H]7c8ccc(O)cc8CCC78CCC8)cc6)CC5)CC4)ccc3C2=O)C(=O)N1 (mixture of isomers) [Example 23-2, 3-(5-(4-((1-(4-((S)-6′-Hydroxy-3′,4′-dihydro-1′H-spiro[cyclobutane-1,2′-naphthalen]-1′-yl)phenyl)piperidin-4-yl)methyl)piperazin-1-yl)-1-oxoisoindolin-2-yl)piperidine-2,6-dione]

IC50 (MCF7 cells): 0.67 nM
IC50 (MCF7/ERα Y537S cells): 3.31 nM
Structure (SMILES): O=C1CCC(N2Cc3cc(N4CCN(CC5CCN(c6ccc(C7c8ccc(O)cc8CC[C@@H]7C7CCOCC7)cc6)CC5)CC4)ccc3C2=O)C(=O)N1 (stereo partly drawn) [Example 7, 3-(5-(4-((1-(4-((1,2)-cis-6-Hydroxy-2-(tetrahydro-2H-pyran-4-yl)-1,2,3,4-tetrahydronaphthalen-1-yl)phenyl)piperidin-4-yl)methyl)piperazin-1-yl)-1-oxoisoindolin-2-yl)piperidine-2,6-dione]

IC50 (MCF7 cells): 0.73 nM
IC50 (MCF7/ERα Y537S cells): 2.74 nM
Structure (SMILES): O=C1CC[C@H](N2Cc3cc(N4CCN(CC5CCN(c6ccc([C@@H]7c8ccc(O)cc8CC[C@@H]7C7CCCCC7)cc6F)CC5)CC4)ccc3C2=O)C(=O)N1 [Example 20, (S)-3-(5-(4-((1-(4-((1R,2R)-2-Cyclohexyl-6-hydroxy-1,2,3,4-tetrahydronaphthalen-1-yl)-2-fluorophenyl)piperidin-4-yl)methyl)piperazin-1-yl)-1-oxoisoindolin-2-yl)piperidine-2,6-dione]
